Measurements as given in EP2801357A1, “Carboxylated stilbenes for activating AMPK and sirtuins” (IMD Natural Solutions GmbH, priority 2013, dated 2014).
Read-outs that look alike come from different tables or passages of the source.

Experiments:
human sirtuin-1 (Sirt1) = molecular target: T1, human sirtuin-1 (Sirt1) (Homo sapiens, UniProt Q96EB6); assay: SIRT1 Fluorimetric Drug Discovery Kit, Sirt1 activation; format: biochemical; conditions: for Fold increase in sirt1 activity versus control: Example 1(a), 10 µM, trans-resveratrol as control (1.0); for remaining activity at 0.3 µM / remaining activity at 1 µM / remaining activity at 3 µM / remaining activity at 10 µM / remaining activity at 30 µM: read-out: Activity [% control]
T1 construct: purchased BioMol, Hamburg, Germany
T1 sequence (Q96EB6 1-747): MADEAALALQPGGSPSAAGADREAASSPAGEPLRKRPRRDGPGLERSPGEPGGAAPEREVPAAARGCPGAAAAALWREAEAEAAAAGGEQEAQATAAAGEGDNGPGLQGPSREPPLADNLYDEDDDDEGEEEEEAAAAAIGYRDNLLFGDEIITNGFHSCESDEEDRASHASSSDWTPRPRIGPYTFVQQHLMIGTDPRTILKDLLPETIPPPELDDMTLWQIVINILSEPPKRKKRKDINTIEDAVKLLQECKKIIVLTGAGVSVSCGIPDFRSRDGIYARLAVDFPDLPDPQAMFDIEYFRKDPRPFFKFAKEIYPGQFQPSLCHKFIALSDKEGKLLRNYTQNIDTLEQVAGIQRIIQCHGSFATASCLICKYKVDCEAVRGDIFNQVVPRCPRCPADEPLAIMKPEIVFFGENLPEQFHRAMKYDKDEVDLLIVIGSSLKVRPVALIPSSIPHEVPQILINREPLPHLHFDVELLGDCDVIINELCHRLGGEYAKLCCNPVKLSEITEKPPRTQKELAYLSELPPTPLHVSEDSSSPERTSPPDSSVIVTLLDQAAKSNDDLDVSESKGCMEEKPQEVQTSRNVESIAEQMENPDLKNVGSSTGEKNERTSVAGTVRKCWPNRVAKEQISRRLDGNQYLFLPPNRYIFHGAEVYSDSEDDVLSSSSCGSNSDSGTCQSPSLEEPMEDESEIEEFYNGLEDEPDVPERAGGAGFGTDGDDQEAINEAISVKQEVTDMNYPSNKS
Method: Compounds were tested for Sirt1 activation using the SIRT1 Fluorimetric Drug Discovery Kit (BioMol, Hamburg, Germany), Testing was carried out in duplicate following the manufacturer's instructions. Assay medium: 50mM Tris-HCl pH 8.0, 137 mM NaCl, 2.7 mM KCI, 1 mM MgCl2, 1 mg/ml bovine serum albumin (BSA). Stock solutions of the test compounds (10 mM in DMSO) were used, yielding a final concentration of 10 µM in the assay plate. Readout was obtained by measuring the fluorescence in a microtiter plate reader (excitation: 380 nm; detection: 440 nm).
The agonistic effect on Sirt1 was determined at different concentrations. For this purpose, the test compound stock solutions were diluted to yield concentrations of 0.3, 1, 3, 10 and 30 µM, respectively, in the assay, which was performed as described above. The compound of structure (I-1) was selected for this experiment.
The selectivity of the agonistic effect of the compound of formula (I-1) on different sirtuin isoforms was investigated. For this purpose, in vitro testing was performed as described in Example 1 using the respective SIRT1 Fluorimetric Drug Discovery Kit, SIRT2 Fluorimetric Drug Discovery Kit, and SIRT3 Fluorimetric Drug Discovery Kit (each from BioMol, Hamburg, Germany). […] The dose-response effect is slightly lesser on Sirt3. Table 3: Activity on Sirt1

[1] = tested on: 5'-AMP-activated protein kinase (AMPK); assay: Western blot analysis of AMPK phosphorylation in NHEK; format: cell-based, human; conditions: for AMPK phosphorylation [% Control] / P-AMPK / Ratio P-AMPK/ GAPDH: 48 h;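 as to P-AMPK: Chemiluminescence band density of P-AMPK measured with Multigauge software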
Sirt2 = molecular target: T2, Sirt2 (Homo sapiens, UniProt Q8IXJ6); assay: SIRT2 Fluorimetric Drug Discovery Kit, Sirt2 activation; format: biochemical; conditions: Example 2, Table 6, Sirt2
T2 construct: purchased BioMol, Hamburg, Germany
T2 sequence (Q8IXJ6 1-389): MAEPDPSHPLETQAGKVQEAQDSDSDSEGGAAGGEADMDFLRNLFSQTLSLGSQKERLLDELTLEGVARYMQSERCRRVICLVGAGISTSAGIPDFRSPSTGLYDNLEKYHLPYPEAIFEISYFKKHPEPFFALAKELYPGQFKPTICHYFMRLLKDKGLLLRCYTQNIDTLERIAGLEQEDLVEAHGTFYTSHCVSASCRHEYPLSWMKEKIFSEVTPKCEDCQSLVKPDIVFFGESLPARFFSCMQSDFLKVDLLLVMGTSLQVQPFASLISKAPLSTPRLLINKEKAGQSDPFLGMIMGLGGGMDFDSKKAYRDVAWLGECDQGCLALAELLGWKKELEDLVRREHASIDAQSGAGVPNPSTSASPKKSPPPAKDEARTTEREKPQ

[2] = tested on: normal human epidermal keratinocytes (NHEK); assay: MTT reduction assay, cytotoxicity in NHEK; format: cell-based; conditions: for viability: NHEK, MTT
Method: Culture conditions: 37 °C, 5 % CO2. Culture medium: Keratinocyte-SFM (serum-free medium) containing human recombinant epidermal growth factor (EGF 1-53) 0.25 ng/mL and bovine pituitary extract 25 µg/mL (Gibco; Cat. No. 17005-075), supplemented with gentamycin 25 µg/mL. Assay medium: Keratinocyte-SFM (Gibco; Cat. No. 10744-019), supplemented with gentamycin 25 µg/mL.
NHEK were seeded in 24-well plates (30.000 cells / well) and cultured in culture medium for 24 h and then in assay medium for another 24 h. Medium was then removed and replaced by assay medium containing the respective test compound or reference in defined concentrations.
Cytotoxicity was determined using the 3-(4,5-dimethylthiazol-2-yl)-2,5-diphenyltetrazoliumbromid (MTT) reduction assay (sse T. Mosmann (1983) J. Immunol. Methods. 65, pp. 55-63).

[3] = Experiment 1, Membrane 1, 1000 µM
[4] = Experiment 1, Membrane 2, 300 µM

In the case of `O=C(O)c1c(O)cccc1/C=C/c1ccc(O)cc1` [(I-2)], the “Fold increase in sirt1 activity versus control” value (from here on “Fold increase”) (human sirtuin-1 (Sirt1)) is reported as 4.8.
`COC(=O)c1c(/C=C/c2ccc(OC)cc2)cccc1OC` [(I-3)] was tested, and the “Fold increase” value (human sirtuin-1 (Sirt1)) was 1.1.
In the case of `COc1cc(/C=C/c2cccc(O)c2C(=O)O)cc(OC)c1O` [(I-4)], the “Fold increase” value (human sirtuin-1 (Sirt1)) is reported as 2.0.
For `CC(=O)c1c(O)cccc1/C=C/c1ccc(OC2OC(CO)C(O)C(O)C2O)cc1` (stereo not drawn) [(I-5)], the “Fold increase” value (human sirtuin-1 (Sirt1)) was 2.7.
For `NC(=O)c1ncn([C@@H]2O[C@H](CO)[C@@H](O)[C@H]2O)c1N` [AICAR, 5-Amino-1-ß-D-ribofuranosyl-imidazole-4-carboxamide], the “AMPK phosphorylation [% Control]” value [1, 3] was 482 % Control, the P-AMPK [1, 3] was 1060 AU/mm^2 and the “Ratio P-AMPK/ GAPDH” value [1, 3] was 2.05. The “AMPK phosphorylation [% Control]” value ([1]; Experiment 2, 1000 µM) was 506 % Control, the P-AMPK ([1]; Experiment 2, 1000 µM) was 1377449 AU/mm^2 and the “Ratio P-AMPK/ GAPDH” value ([1]; Experiment 2, 1000 µM) was 0.572.
`Oc1ccc(/C=C/c2cc(O)cc(O)c2)cc1` [trans-resveratrol] was tested, and the EC300 (Sirt2) was greater than 30 µM, the “AMPK phosphorylation [% Control]” value [1, 4] was 722 % Control and the P-AMPK [1, 4] was 1616 AU/mm^2. For the same molecule, the “AMPK phosphorylation [% Control]” value ([1]; Experiment 2, 10 µM) was 81 % Control, the P-AMPK ([1]; Experiment 2, 10 µM) was 228626 AU/mm^2 and the “AMPK phosphorylation [% Control]” value ([1]; Experiment 2, 30 µM) was 86 % Control. For the same molecule, the P-AMPK ([1]; Experiment 2, 30 µM) was 211794 AU/mm^2, the “AMPK phosphorylation [% Control]” value ([1]; Experiment 2, 100 µM) was 117 % Control and the P-AMPK ([1]; Experiment 2, 100 µM) was 327757 AU/mm^2. For the same molecule, the “AMPK phosphorylation [% Control]” value ([1]; Experiment 2, 200 µM) was 816 % Control, the P-AMPK ([1]; Experiment 2, 200 µM) was 2361575 AU/mm^2 and the “AMPK phosphorylation [% Control]” value ([1]; Experiment 2, 300 µM) was 21 % Control. The P-AMPK ([1]; Experiment 2, 300 µM) was 69290 AU/mm^2, the “dosage needed for similar enhancement of AMPK phosphorylation” value ([1]; effect similar to compound (I-1) at 30 µM) was “at least 200 µM” and the viability ([2]; 100 µM) was 2%. The viability ([2]; 300 µM) was 43%, the “concentrations with cytotoxic effects on NHEK” value ([2]; under assay conditions) was no less than 100 µM and the remaining activity at 0.3 µM (human sirtuin-1 (Sirt1); Example 1(b), Table 2, 0.3 µM) was 104%. It also gave a remaining activity at 1 µM (human sirtuin-1 (Sirt1); Example 1(b), Table 2, 1.0 µM) of 101%, a remaining activity at 3 µM (human sirtuin-1 (Sirt1); Example 1(b), Table 2, 3.0 µM) of 100% and a remaining activity at 10 µM (human sirtuin-1 (Sirt1); Example 1(b), Table 2, 10.0 µM) of 108%. The remaining activity at 30 µM (human sirtuin-1 (Sirt1); Example 1(b), Table 2, 30.0 µM) was 120%, the EC300 (human sirtuin-1 (Sirt1); Example 1(b), concentration that gave 3-times the basal response of the enzyme) was greater than 30 µM and the remaining activity at 0.3 µM (human sirtuin-1 (Sirt1); Example 2, Table 3, 0.3 µM) was 121%. It also gave a remaining activity at 1 µM (human sirtuin-1 (Sirt1); Example 2, Table 3, 1.0 µM) of 100%, a remaining activity at 3 µM (human sirtuin-1 (Sirt1); Example 2, Table 3, 3.0 µM) of 117% and a remaining activity at 10 µM (human sirtuin-1 (Sirt1); Example 2, Table 3, 10.0 µM) of 111%. The remaining activity at 30 µM (human sirtuin-1 (Sirt1); Example 2, Table 3, 30.0 µM) was 145% and the EC300 (human sirtuin-1 (Sirt1); Example 2, Table 6, Sirt1) was greater than 30 µM.
